Patent US11738008B2, “N-methyl-D-aspartic acid receptor modulators” (Emory University, priority 2018, dated 2023)
Like-named read-outs stand apart in the source and are kept apart here.

Experiments:
[1] = In vivo pharmacokinetics, plasma and brain, IP 10 mg/kg; parameters: species or system C57BL/6 mice; conditions: mouse
Protocol: In vivo analysis of 1180-420 and 1180-447 for pharmacokinetic properties: In vivo analysis of 1180-420 and 1180-447 for pharmacokinetic properties was performed by Pharmaron (Irvine, Calif.). […] The mouse is placed head down at a 45-degree angle to facilitate blood removal. After perfusion, the brain ventricle is opened, and the brain is removed. […] The mixtures were then vortexed for 30 seconds and subsequently centrifuged (˜4000 rpm) for 15 minutes.

β3 = β3 (Homo sapiens, UniProt P13945); assay: NIMH PDSP radioligand binding, β3; conditions: read-out: Radioligand binding in 10 μM compound (% control)
Protocol: (§1) The NIMH PDSP is Directed by Bryan L. Roth at the University of North Carolina at Chapel Hill and Project Officer Jamie Driscoll at NIMH, Bethesda Md., USA. Radioligand binding was measured in the presence of 10 μM 1180-420 and 1180-447. […] For experimental details please refer to the PDSP web site https://pdsp.unc.edu/ims/investigator/web/. Both 1180-420 and 1180-447 were also tested at AMPA, nicotinic acetylcholine, serotonin, GABA, and glycine ion channels using a two-electrode voltage clamp assay.
(§2) Receptor binding profiles of compound 1180-447 were generously provided by the National Institute of Mental Health's Psychoactive Drug Screening Program, Contract # HHSN-271-2013-00017-C(NIMH PDSP). The NIMH PDSP is directed by Bryan L. Roth at the University of North Carolina at Chapel Hill and Project Officer Jamie Driscoll at NIMH, Bethesda Md., USA. Radioligand binding was measured in the presence of 10 μM 1180-447. […] For experimental details please refer to the PDSP web site https://pdsp.unc.edu/ims/investigator/web/.
(§3) The NIMH PDSP is Directed by Bryan L. Roth at the University of North Carolina at Chapel Hill and Project Officer Jamie Driscoll at NIMH, Bethesda Md., USA. Radioligand binding was measured in the presence of 10 μM 1180-420. […] For experimental details please refer to the PDSP web site https://pdsp.unc.edu/ims/investigator/web/.

σ1 = σ1 (Homo sapiens, UniProt Q99720); assay: NIMH PDSP radioligand binding, σ1; conditions: read-out: Radioligand binding in 10 μM compound (% control)
Protocol: as §1, §2, §3

[2] = molecular target: norepinephrine transporter (Homo sapiens, UniProt P23975); assay: NIMH PDSP radioligand binding, norepinephrine transporter; conditions: read-out: Radioligand binding in 10 μM compound (% control)
Protocol: as §1, §2, §3

5-HT7 = molecular target: T1, 5-HT7 (Homo sapiens, UniProt P34969); assay: NIMH PDSP radioligand binding, 5-HT7; conditions: read-out: Radioligand binding in 10 μM compound (% control)
T1 construct: NIMH PDSP (assay provider)
Protocol: as §1, §2, §3

GluA1 = molecular target: T2, GluA1 (Homo sapiens, UniProt P42261); assay: Off-target two-electrode voltage clamp assay, GluA1; format: cell-based; conditions: 10 μM, mean ± SEM
T2 construct: expressed in transfected cells
Protocol: as §1

α1A = α1A (Homo sapiens, UniProt P35348); assay: NIMH PDSP radioligand binding, α1A; conditions: read-out: Radioligand binding in 10 μM compound (% control)
Protocol: as §1, §2, §3

5-HT3 = molecular target: T3, 5-HT3 (Homo sapiens, UniProt P46098); assay: NIMH PDSP radioligand binding, 5-HT3; conditions: read-out: Radioligand binding in 10 μM compound (% control)
T3 construct: NIMH PDSP (assay provider)
Protocol: as §1, §2, §3

H2 = H2 (Homo sapiens, UniProt P25021); assay: NIMH PDSP radioligand binding, H2; conditions: read-out: Radioligand binding in 10 μM compound (% control)
Protocol: as §1, §2, §3

5-HT1D = molecular target: T4, 5-HT1D (Homo sapiens, UniProt P28221); assay: NIMH PDSP radioligand binding, 5-HT1D; conditions: read-out: Radioligand binding in 10 μM compound (% control)
T4 construct: NIMH PDSP (assay provider)
Protocol: as §1, §2, §3

5-HT2A = molecular target: T5, 5-HT2A (Homo sapiens, UniProt P28223); assay: NIMH PDSP radioligand binding, 5-HT2A; conditions: 10 μM, read-out: Radioligand binding in 10 μM compound (% control)
T5 construct: NIMH PDSP (assay provider)
Protocol: as §1, §2, §3

M1 = M1 (Homo sapiens, UniProt P11229); assay: NIMH PDSP radioligand binding, M1; conditions: read-out: Radioligand binding in 10 μM compound (% control)
Protocol: as §1, §2, §3

D2 = molecular target: T6, D2 (Homo sapiens, UniProt P14416); assay: NIMH PDSP radioligand binding, D2; conditions: read-out: Radioligand binding in 10 μM compound (% control)
T6 construct: NIMH PDSP (assay provider)
Protocol: as §1, §2, §3

α1B = α1B (Homo sapiens, UniProt P35368); assay: NIMH PDSP radioligand binding, α1B; conditions: read-out: Radioligand binding in 10 μM compound (% control)
Protocol: as §1, §2, §3

5-HT1E = molecular target: T7, 5-HT1E (Homo sapiens, UniProt P28566); assay: NIMH PDSP radioligand binding, 5-HT1E; conditions: read-out: Radioligand binding in 10 μM compound (% control)
T7 construct: NIMH PDSP (assay provider)
Protocol: as §1, §2, §3

D5 = molecular target: T8, D5 (Homo sapiens, UniProt P21918); assay: NIMH PDSP radioligand binding, D5
T8 construct: NIMH PDSP (assay provider)
Protocol: as §1, §2, §3

H1 = H1 (Homo sapiens, UniProt P35367); assay: NIMH PDSP radioligand binding, H1; conditions: read-out: Radioligand binding in 10 μM compound (% control)
Protocol: as §1, §2, §3

CNS receptors = assay: Off-target profile, NIMH PDSP CNS receptors (panel summary); format: binding; conditions: 10 μM
Protocol: as §1, §2, §3

hERG = hERG (Homo sapiens, UniProt Q12809); assay: NIMH PDSP hERG binding
Protocol: as §1, §2, §3

α1D = α1D (Homo sapiens, UniProt P25100); assay: NIMH PDSP radioligand binding, α1D; conditions: read-out: Radioligand binding in 10 μM compound (% control)
Protocol: as §1, §2, §3

β1 = β1 (Homo sapiens, UniProt P08588); assay: NIMH PDSP radioligand binding, β1; conditions: read-out: Radioligand binding in 10 μM compound (% control)
Protocol: as §1, §2, §3

M5 = M5 (Homo sapiens, UniProt P08912); assay: NIMH PDSP radioligand binding, M5; conditions: read-out: Radioligand binding in 10 μM compound (% control)
Protocol: as §1, §2, §3

μ-opioid receptor = μ-opioid receptor (Homo sapiens, UniProt P35372); assay: NIMH PDSP radioligand binding, μ-opioid receptor; conditions: read-out: Radioligand binding in 10 μM compound (% control)
Protocol: as §1, §2, §3

M2 = M2 (Homo sapiens, UniProt P08172); assay: NIMH PDSP radioligand binding, M2; conditions: read-out: Radioligand binding in 10 μM compound (% control)
Protocol: as §1, §2, §3

α4β2-nACh = molecular target: T9, α4β2-nACh (Homo sapiens, UniProt P17787+P43681); assay: Off-target two-electrode voltage clamp assay, α4β2-nACh; format: cell-based; conditions: 10 μM, mean ± SEM
T9 construct: expressed in transfected cells
Protocol: as §1

α2A = α2A (Homo sapiens, UniProt P08913); assay: NIMH PDSP radioligand binding, α2A; conditions: read-out: Radioligand binding in 10 μM compound (% control)
Protocol: as §1, §2, §3

α2B = α2B (Homo sapiens, UniProt P18089); assay: NIMH PDSP radioligand binding, α2B; conditions: read-out: Radioligand binding in 10 μM compound (% control)
Protocol: as §1, §2, §3

D4 = molecular target: T10, D4 (Homo sapiens, UniProt P21917); assay: NIMH PDSP radioligand binding, D4; conditions: read-out: Radioligand binding in 10 μM compound (% control)
T10 construct: NIMH PDSP (assay provider)
Protocol: as §1, §2, §3

[3] = male, C57BL/6, Plasma IP 10 mg/kg fed, mean

T8 sequence (P21918 whole entry): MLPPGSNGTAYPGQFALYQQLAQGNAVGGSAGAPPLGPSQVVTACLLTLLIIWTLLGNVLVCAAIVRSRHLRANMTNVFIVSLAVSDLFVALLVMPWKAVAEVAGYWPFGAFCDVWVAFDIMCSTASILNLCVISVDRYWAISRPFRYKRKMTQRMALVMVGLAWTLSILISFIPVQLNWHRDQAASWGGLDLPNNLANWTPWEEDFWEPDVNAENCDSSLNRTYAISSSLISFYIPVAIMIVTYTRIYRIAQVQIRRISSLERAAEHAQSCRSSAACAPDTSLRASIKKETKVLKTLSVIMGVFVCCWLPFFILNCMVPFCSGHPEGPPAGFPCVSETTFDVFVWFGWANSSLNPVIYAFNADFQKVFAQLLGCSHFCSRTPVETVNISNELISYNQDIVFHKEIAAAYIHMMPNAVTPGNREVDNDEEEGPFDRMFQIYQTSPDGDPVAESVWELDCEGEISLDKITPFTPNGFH
Chain of α1A (P35348 whole entry): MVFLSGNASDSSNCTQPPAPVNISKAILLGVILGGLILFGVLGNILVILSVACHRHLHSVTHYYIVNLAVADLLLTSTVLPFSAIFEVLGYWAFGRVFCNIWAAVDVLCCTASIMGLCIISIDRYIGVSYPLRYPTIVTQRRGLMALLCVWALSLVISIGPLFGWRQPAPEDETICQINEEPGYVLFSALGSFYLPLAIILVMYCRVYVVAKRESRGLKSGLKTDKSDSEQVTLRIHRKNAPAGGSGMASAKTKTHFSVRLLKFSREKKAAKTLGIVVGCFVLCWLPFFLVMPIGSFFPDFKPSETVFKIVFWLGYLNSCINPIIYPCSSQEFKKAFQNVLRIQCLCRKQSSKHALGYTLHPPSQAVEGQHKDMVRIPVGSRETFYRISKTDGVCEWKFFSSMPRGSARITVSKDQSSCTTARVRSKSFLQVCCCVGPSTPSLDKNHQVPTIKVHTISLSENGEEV
Chain of α1D (P25100 whole entry): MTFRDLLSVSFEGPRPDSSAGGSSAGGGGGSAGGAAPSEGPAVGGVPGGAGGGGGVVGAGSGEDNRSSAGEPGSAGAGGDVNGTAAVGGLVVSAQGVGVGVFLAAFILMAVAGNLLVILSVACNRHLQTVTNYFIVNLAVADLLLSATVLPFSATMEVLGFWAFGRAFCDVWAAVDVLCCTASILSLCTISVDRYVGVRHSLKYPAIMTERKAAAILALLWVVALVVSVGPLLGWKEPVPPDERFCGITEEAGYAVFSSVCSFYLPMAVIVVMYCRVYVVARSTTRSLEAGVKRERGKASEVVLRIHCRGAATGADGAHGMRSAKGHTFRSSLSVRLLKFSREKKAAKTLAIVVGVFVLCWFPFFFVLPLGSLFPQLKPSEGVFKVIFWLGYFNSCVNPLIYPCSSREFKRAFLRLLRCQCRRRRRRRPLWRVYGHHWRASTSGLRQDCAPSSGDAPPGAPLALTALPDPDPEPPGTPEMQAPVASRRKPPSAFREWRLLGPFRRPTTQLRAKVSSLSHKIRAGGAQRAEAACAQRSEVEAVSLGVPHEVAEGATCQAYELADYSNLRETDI
T3 sequence (P46098 24-478, species assumed): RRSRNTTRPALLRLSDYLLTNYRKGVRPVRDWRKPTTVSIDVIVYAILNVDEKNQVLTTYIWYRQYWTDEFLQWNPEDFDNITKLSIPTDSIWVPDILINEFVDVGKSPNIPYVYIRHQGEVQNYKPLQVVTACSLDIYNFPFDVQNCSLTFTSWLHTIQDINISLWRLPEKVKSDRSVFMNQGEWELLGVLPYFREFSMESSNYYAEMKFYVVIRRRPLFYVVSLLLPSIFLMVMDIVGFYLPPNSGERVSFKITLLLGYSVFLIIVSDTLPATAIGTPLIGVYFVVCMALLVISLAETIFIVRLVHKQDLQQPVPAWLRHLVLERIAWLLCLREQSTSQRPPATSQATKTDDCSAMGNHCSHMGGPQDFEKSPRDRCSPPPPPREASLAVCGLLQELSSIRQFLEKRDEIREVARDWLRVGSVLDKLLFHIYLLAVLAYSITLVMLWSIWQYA
Chain of α1B (P35368 whole entry): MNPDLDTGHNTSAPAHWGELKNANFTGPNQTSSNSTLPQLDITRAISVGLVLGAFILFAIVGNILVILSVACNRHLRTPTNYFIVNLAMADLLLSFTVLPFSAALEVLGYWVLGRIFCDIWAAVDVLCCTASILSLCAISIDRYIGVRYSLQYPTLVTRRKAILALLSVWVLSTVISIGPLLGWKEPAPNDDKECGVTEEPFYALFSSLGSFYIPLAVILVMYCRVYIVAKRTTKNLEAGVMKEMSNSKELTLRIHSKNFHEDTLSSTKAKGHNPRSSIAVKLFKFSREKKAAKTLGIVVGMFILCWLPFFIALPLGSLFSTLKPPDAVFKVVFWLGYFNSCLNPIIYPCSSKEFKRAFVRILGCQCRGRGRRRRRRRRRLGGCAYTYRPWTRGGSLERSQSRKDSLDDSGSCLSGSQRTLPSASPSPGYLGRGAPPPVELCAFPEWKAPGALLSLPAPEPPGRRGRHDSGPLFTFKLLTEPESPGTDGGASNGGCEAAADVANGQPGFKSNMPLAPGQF
T9 sequence (P43681 29-627 limits assumed): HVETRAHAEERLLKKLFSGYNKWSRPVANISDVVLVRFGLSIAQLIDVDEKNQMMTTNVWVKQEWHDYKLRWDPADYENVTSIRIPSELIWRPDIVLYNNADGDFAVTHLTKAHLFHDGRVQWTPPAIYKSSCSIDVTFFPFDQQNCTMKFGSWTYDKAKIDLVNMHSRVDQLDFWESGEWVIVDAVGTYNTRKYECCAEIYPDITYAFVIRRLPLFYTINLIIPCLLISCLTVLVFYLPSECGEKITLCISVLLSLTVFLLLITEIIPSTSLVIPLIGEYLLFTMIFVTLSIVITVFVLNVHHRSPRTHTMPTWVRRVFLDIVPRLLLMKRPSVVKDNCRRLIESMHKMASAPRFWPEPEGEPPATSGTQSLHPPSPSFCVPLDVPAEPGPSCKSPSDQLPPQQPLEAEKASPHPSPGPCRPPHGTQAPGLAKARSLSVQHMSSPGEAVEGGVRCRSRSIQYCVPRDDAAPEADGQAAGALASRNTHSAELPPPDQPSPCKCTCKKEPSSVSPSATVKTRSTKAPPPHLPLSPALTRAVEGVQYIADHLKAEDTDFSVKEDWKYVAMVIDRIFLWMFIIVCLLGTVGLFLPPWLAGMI
T9 sequence (P17787 26-502): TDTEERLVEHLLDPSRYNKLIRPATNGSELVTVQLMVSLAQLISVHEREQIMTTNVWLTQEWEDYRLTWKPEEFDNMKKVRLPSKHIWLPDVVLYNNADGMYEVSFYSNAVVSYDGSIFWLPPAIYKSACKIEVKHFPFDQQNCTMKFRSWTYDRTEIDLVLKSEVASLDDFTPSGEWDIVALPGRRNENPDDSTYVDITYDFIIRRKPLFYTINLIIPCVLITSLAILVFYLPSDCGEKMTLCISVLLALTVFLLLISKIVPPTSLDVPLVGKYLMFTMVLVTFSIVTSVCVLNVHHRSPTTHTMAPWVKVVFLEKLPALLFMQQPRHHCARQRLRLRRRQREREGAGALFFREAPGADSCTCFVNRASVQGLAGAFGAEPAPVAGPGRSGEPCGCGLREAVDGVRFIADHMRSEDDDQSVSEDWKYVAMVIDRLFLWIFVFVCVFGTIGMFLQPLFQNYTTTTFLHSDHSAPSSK
Chain of μ-opioid receptor (P35372 whole entry, species assumed): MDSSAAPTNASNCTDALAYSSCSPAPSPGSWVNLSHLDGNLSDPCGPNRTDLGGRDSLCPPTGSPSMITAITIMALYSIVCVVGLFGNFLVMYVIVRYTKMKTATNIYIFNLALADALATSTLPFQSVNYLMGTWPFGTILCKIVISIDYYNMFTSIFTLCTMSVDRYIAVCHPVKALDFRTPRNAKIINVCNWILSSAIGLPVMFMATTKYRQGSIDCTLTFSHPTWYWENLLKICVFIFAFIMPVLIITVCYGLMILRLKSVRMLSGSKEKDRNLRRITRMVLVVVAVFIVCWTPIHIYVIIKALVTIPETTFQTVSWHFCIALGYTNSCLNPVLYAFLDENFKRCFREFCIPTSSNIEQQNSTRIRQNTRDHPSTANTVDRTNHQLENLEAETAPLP
T10 sequence (P21917 whole entry): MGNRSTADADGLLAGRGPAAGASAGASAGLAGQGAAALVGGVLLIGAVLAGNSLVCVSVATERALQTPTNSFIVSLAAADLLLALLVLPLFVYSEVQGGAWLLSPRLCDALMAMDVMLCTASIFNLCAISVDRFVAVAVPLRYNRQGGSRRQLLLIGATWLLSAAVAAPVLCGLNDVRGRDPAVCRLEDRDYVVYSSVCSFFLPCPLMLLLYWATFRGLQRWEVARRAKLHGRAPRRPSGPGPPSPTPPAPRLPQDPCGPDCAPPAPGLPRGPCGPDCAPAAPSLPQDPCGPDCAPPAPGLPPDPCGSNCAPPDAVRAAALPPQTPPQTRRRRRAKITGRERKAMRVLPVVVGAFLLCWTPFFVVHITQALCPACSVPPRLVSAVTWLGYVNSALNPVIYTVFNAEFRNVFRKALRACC
T1 sequence (P34969 whole entry, species assumed): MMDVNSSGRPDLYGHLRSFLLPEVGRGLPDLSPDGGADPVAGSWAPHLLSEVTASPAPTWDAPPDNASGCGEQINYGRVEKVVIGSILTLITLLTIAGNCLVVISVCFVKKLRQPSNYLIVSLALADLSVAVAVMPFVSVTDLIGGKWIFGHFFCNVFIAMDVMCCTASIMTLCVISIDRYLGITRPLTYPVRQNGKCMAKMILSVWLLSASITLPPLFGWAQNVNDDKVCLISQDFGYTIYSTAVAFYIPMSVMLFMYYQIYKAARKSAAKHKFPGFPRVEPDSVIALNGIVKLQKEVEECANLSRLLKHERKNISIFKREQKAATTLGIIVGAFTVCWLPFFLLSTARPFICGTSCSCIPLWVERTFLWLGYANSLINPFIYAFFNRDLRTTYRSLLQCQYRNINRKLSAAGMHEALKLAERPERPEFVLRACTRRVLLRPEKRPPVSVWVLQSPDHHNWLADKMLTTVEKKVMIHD

COc1ccc(OCC2c3cccn3CCN2C(=O)c2cccc(Cl)c2)cc1 (stereo not drawn) [1180-420, (3-Chlorophenyl)(1-((4-methoxyphenoxy)methyl)-3,4-dihydropyrrolo[1,2-a]pyrazin-2(1H)-yl)methanone]
AUC % Extrapolation ([1]; Brain IP 10 mg/kg fed, mean): 7%
AUCINF ([1]; Brain IP 10 mg/kg fed, mean): 1413 ng·h/g
AUCLAST ([1]; Brain IP 10 mg/kg fed, mean): 1315 ng·h/g
t½terminal ([1]; Brain IP 10 mg/kg fed, mean): 66 min
max brain concentration ([1]; IP 10 mg/kg): 4 µM
AUC % Extrapolation ([1]; Plasma IP 10 mg/kg fed, mean): 8%
t½terminal ([1]; Plasma IP 10 mg/kg fed, mean): 66 min
Kp ([1]; male, C57BL/6, brain and plasma, IP 10 mg/kg fed, read-out: Ratio_AUCLAST (Brain/plasma)): 2
half-life ([1]; male, C57BL/6, plasma, IP 10 mg/kg, read-out: half-lives in plasma): > 60 min
Tmax ([1]; male, C57BL/6, Brain IP 10 mg/kg fed, mean): 18 min
Cmax ([1]; male, C57BL/6, Brain IP 10 mg/kg fed, mean, read-out: Cmax): 3500 nM
Cmax ([1]; male, C57BL/6, Brain IP 10 mg/kg fed, mean, read-out: Cmax (ng/g)): 1410 ng/g
AUC(0-inf) [1, 3]: 856 ng·h/mL
AUC(0-t) [1, 3]: 792 ng·h/mL
Tmax [1, 3]: 18 min
Cmax ([1]; male, C57BL/6, Plasma IP 10 mg/kg fed, mean, read-out: Cmax): 2100 nM
Cmax ([1]; male, C57BL/6, Plasma IP 10 mg/kg fed, mean, read-out: Cmax (ng/mL)): 841 ng/mL
remaining activity at 10 µM (β3): 74%
remaining activity at 10 µM (σ1): 76%
remaining activity at 10 µM [2]: 75%
remaining activity at 10 µM (5-HT7): 115%
% control response (GluA1): 98.9 ± 13.7 % control response
remaining activity at 10 µM (α1A): 91%
remaining activity at 10 µM (5-HT3): 116%
remaining activity at 10 µM (H2): 75%
remaining activity at 10 µM (5-HT1D): 112%
remaining activity at 10 µM (5-HT2A): 69%
remaining activity at 10 µM (M1): 90%
remaining activity at 10 µM (D2): 87%
remaining activity at 10 µM (α1B): 100%
remaining activity at 10 µM (5-HT1E): 78%
remaining activity at 10 µM (D5; 10 μM, read-out: Radioligand binding in 10 μM compound (% control)): 37%
Ki (D5; read-out: pKi values from non-linear regression of radioligand competition binding isotherms (converted)): 1260 nM
remaining activity at 10 µM (H1): 74%
receptors with >50% inhibition / receptors tested (CNS receptors): 4/44
Radioligand binding in 10 μM compound (% control) (hERG): 73 % control
remaining activity at 10 µM (α1D): 79%
remaining activity at 10 µM (β1): 98%
remaining activity at 10 µM (M5): 101%
remaining activity at 10 µM (μ-opioid receptor): 104%
remaining activity at 10 µM (M2): 110%
% control response (α4β2-nACh): 56.4 ± 5.3 % control response
remaining activity at 10 µM (α2A): 79%
remaining activity at 10 µM (α2B): 93%
remaining activity at 10 µM (D4): 90%
